The results in this text go back to patent US10590158B2 (priority 2015, dated 2020).

Holding throughout (test): cells
Common to all, as to assay type: cell-based

Test [1] concerns MES SA cells. To be noted: Homo sapiens, 72 h, read-out: IC50 MES SA.
Test [2] concerns 293T cells. Particulars: Homo sapiens, HEK-293T, 72 h, read-out: IC50 293T.
The subject of test [3] is MES DX cells. Particulars: MDR1, 72 h, read-out: IC50 MES DX.

`COC(=O)NC1=C2/C(=C\CSSSC)[C@](O)(C#C/C=C\C#C[C@]2(O)OC2OC(C)C(SC)(C(=O)c3nccc4c3[nH]c3ccc(O)cc34)C(O)C2OC2CC(OC)C(NC(C)C)CO2)CC1=O` (stereo partly shown): the IC50 in test [1] amounted to 0.0126 nM; in test [2], 0.0162 nM.
`COC(=O)NC1=C2/C(=C\CSSC)[C@](O)(C#C/C=C\C#C[C@]2(O)OC2OC(C)C(SC)(C(=O)c3nccc4c3[nH]c3ccc(O)cc34)C(O)C2OC2CC(OC)C(NC(C)C)CO2)CC1=O` (stereo partly shown): the IC50 in test [3] was 34.6 nM; in test [2], 0.00146 nM.

Usually IC50 stands for the midpoint of a concentration-inhibition curve.
